These molecules were tested on BT-474 (assay: drug sensitivity score (DSS), CellTiter-Glo (DSS (AUC-based score)); higher = stronger drug effect (viability inhibition or cytotoxicity); extreme values may be limits of the assay). Details: incubation time: 72 h.
How it was run: (§1)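 The drug sensitivity score reflects the area under a fitted dose-response curve. To obtain it, breast cancer cells in 20 µl suspension were seeded into 384-well plates containing compound at 5 concentrations, 10-fold apart over a compound-specific 10,000-fold range, and incubated 72 h. CellTox Green fluorescence (485/520 nm) was read first and CellTiter-Glo luminescence second, after 10 min at room temperature. Each plate was normalised to 0.1 % DMSO and a positive kill control.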

| Structure (SMILES) | drug sensitivity score |
| --- | --- |
| CCc1c2c(nc3ccc(OC(=O)N4CCC(N5CCCCC5)CC4)cc13)-c1cc3c(c(=O)n1C2)COC(=O)[C@]3(O)CC [Irinotecan] | 1.83 |
| COC(=O)c1ccc2c(c1)NC(=O)/C2=C(\Nc1ccc(N(C)C(=O)CN2CCN(C)CC2)cc1)c1ccccc1 [Nintedanib] | 5.02 |
| CNC(=O)c1ccc(N2C(=S)N(c3ccc(C#N)c(C(F)(F)F)c3)C(=O)C23CCC3)cc1F [RD162] | 3.77e-05 |
| COc1cc2c(NC3CCN(C(C)C)CC3)nc(N3CCC(F)(F)CC3)nc2cc1OCCCN1CCCC1 [UNC0642] | 1.75 |

These molecules were tested on CAL-85-1 in the same assay as above. Details: incubation time: 72 h.
How it was run: as §1

| Structure (SMILES) | drug sensitivity score |
| --- | --- |
| CCn1c(-c2nonc2N)nc2cnc(Oc3cccc(NC(=O)c4ccc(OCCN5CCOCC5)cc4)c3)cc21 | 0 |
| N#Cc1ccc(COC[C@H]2O[C@@H](n3c(NCc4ccc(Cl)c(Cl)c4)nc4c(N)ncnc43)[C@H](O)[C@@H]2O)cc1 | 0 |
| COc1cc(O)c2c(c1)/C=C/C[C@H](O)[C@H](O)C(=O)/C=C\C[C@H](C)OC2=O [(5Z)-7-Oxozeaenol] | 12.4 |
| COc1cc(OC2CCN(C)CC2)ccc1Nc1ncc2c(n1)n(C1CCCC1)c(=O)n2C [AZ 3146] | 2.31 |
| CNC(=O)c1cccc(-c2ccc3c(N4CCOC[C@@H]4C)nc(N4CCOC[C@@H]4C)nc3n2)c1 [AZD2014] | 13.2 |
| CN(C)c1nc(N(C)C)nc(N(C)C)n1 [Altretamine] | 0 |
| Nc1cc(C(F)(F)F)c(-c2cc(N3CCOCC3)nc(N3CCOCC3)n2)cn1 [Buparlisib] | 0 |
| CNC(=O)c1ccc(N2C(=S)N(c3ccc(C#N)c(C(F)(F)F)c3)C(=O)C2(C)C)cc1F [Enzalutamide] | 0 |
| CCOC(=O)CCNc1cc(N2CCc3ccccc3CC2)nc(-c2ccccn2)n1 [GSK-J4] | 15.1 |
| Cc1cc(Nc2cc(CN3CCOCC3)c3nc(C)c(Cc4ccc(Cl)cc4F)n3n2)n[nH]1 [Gandotinib] | 4.82 |
| COc1cc2ncnc(Nc3ccc(F)c(Cl)c3)c2cc1OCCCN1CCOCC1 [Gefitinib] | 9.09 |
| CCc1c2c(nc3ccc(OC(=O)N4CCC(N5CCCCC5)CC4)cc13)-c1cc3c(c(=O)n1C2)COC(=O)[C@]3(O)CC [Irinotecan] | 0 |
| COC(=O)c1ccc2c(c1)NC(=O)/C2=C(\Nc1ccc(N(C)C(=O)CN2CCN(C)CC2)cc1)c1ccccc1 [Nintedanib] | 0 |
| CNC(=O)c1ccc(N2C(=S)N(c3ccc(C#N)c(C(F)(F)F)c3)C(=O)C23CCC3)cc1F [RD162] | 0 |
| COc1cc2c(NC3CCN(C(C)C)CC3)nc(N3CCC(F)(F)CC3)nc2cc1OCCCN1CCCC1 [UNC0642] | 5.86 |

Each molecule was assayed on HCC1599 in the same assay as above. Details: incubation time: 72 h.
How it was run: as §1

| Structure (SMILES) | drug sensitivity score |
| --- | --- |
| CCn1c(-c2nonc2N)nc2cnc(Oc3cccc(NC(=O)c4ccc(OCCN5CCOCC5)cc4)c3)cc21 | 0 |
| N#Cc1ccc(COC[C@H]2O[C@@H](n3c(NCc4ccc(Cl)c(Cl)c4)nc4c(N)ncnc43)[C@H](O)[C@@H]2O)cc1 | 0 |
| COc1cc(O)c2c(c1)/C=C/C[C@H](O)[C@H](O)C(=O)/C=C\C[C@H](C)OC2=O [(5Z)-7-Oxozeaenol] | 3.26 |
| COc1cc(OC2CCN(C)CC2)ccc1Nc1ncc2c(n1)n(C1CCCC1)c(=O)n2C [AZ 3146] | 1.58 |
| CNC(=O)c1cccc(-c2ccc3c(N4CCOC[C@@H]4C)nc(N4CCOC[C@@H]4C)nc3n2)c1 [AZD2014] | 0.92 |
| CN(C)c1nc(N(C)C)nc(N(C)C)n1 [Altretamine] | 0 |
| Nc1cc(C(F)(F)F)c(-c2cc(N3CCOCC3)nc(N3CCOCC3)n2)cn1 [Buparlisib] | 0 |
| CNC(=O)c1ccc(N2C(=S)N(c3ccc(C#N)c(C(F)(F)F)c3)C(=O)C2(C)C)cc1F [Enzalutamide] | 0 |
| CCOC(=O)CCNc1cc(N2CCc3ccccc3CC2)nc(-c2ccccn2)n1 [GSK-J4] | 12.1 |
| Cc1cc(Nc2cc(CN3CCOCC3)c3nc(C)c(Cc4ccc(Cl)cc4F)n3n2)n[nH]1 [Gandotinib] | 0 |
| COc1cc2ncnc(Nc3ccc(F)c(Cl)c3)c2cc1OCCCN1CCOCC1 [Gefitinib] | 0 |
| CCc1c2c(nc3ccc(OC(=O)N4CCC(N5CCCCC5)CC4)cc13)-c1cc3c(c(=O)n1C2)COC(=O)[C@]3(O)CC [Irinotecan] | 1.9 |
| COC(=O)c1ccc2c(c1)NC(=O)/C2=C(\Nc1ccc(N(C)C(=O)CN2CCN(C)CC2)cc1)c1ccccc1 [Nintedanib] | 0 |
| CNC(=O)c1ccc(N2C(=S)N(c3ccc(C#N)c(C(F)(F)F)c3)C(=O)C23CCC3)cc1F [RD162] | 0 |
| COc1cc2c(NC3CCN(C(C)C)CC3)nc(N3CCC(F)(F)CC3)nc2cc1OCCCN1CCCC1 [UNC0642] | 0 |

What follows are molecules tested on Hs578T in the same assay as above. Details: incubation time: 72 h.
How it was run: as §1

| Structure (SMILES) | drug sensitivity score |
| --- | --- |
| CCn1c(-c2nonc2N)nc2cnc(Oc3cccc(NC(=O)c4ccc(OCCN5CCOCC5)cc4)c3)cc21 | 6.04 |
| N#Cc1ccc(COC[C@H]2O[C@@H](n3c(NCc4ccc(Cl)c(Cl)c4)nc4c(N)ncnc43)[C@H](O)[C@@H]2O)cc1 | 1.73 |
| COc1cc(O)c2c(c1)/C=C/C[C@H](O)[C@H](O)C(=O)/C=C\C[C@H](C)OC2=O [(5Z)-7-Oxozeaenol] | 5.42 |
| COc1cc(OC2CCN(C)CC2)ccc1Nc1ncc2c(n1)n(C1CCCC1)c(=O)n2C [AZ 3146] | 0 |

Source: the supplement of paper PMC4862054
